Data set [1] has as its target T1, recombinant guanylate cyclase reporter cell line (Rattus norvegicus, UniProt P19686+P20595).
T1 construct: expressed in transfected cells; host or cells: recombinant reporter cell line
T1 sequence (P20595 1-619): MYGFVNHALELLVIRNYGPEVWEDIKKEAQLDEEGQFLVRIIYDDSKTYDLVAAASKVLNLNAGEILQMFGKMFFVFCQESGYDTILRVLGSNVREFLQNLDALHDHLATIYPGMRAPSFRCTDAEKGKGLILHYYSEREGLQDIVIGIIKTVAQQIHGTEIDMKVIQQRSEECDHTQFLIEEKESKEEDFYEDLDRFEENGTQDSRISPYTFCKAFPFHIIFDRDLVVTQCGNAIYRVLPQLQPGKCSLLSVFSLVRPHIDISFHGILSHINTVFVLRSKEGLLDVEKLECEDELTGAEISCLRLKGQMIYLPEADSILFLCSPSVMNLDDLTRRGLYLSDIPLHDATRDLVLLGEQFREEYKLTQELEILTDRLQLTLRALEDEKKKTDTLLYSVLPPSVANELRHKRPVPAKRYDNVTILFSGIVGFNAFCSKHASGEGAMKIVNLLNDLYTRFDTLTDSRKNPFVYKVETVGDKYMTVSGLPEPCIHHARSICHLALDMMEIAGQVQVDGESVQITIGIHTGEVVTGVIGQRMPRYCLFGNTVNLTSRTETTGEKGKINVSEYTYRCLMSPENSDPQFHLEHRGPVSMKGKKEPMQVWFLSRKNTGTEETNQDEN
T1 sequence (P19686 1-690): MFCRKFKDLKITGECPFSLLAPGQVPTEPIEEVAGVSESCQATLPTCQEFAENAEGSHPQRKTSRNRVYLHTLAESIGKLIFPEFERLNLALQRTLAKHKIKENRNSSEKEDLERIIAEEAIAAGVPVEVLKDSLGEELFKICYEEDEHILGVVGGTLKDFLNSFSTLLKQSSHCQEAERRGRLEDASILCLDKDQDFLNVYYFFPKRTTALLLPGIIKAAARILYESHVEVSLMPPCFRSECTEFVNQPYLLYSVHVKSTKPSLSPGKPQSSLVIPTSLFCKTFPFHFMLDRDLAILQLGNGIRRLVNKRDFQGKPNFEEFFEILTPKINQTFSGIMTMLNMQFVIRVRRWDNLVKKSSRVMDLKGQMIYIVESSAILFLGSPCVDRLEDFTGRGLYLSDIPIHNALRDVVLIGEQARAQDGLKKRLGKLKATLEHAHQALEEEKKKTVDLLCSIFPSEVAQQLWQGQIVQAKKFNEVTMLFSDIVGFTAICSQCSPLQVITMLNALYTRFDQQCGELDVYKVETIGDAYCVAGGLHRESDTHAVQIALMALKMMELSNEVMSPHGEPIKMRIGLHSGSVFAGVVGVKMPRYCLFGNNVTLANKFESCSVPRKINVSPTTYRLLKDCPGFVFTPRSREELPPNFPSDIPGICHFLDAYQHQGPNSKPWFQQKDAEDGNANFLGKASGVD
Description: Effect on a recombinant guanylate cyclase reporter cell line. It counts as cell-based. As for the experimental part:
The cellular activity of the compounds according to the invention was determined using a recombinant guanylate cyclase reporter cell line, as described in F. Wunder et al., Anal. Biochem. 339, 104-112 (2005).

Data set [2] in a line: Pharmacokinetic parameters following intravenous and oral administration in rats. Conditions: in rats as well as in dogs. In kind it is in vivo, male Wistar rats. As to the method:
The pharmacokinetic parameters of the compounds according to the invention were determined in male Wistar rats and/or in female beagles and/or in cynomolgus monkeys and/or in male CD-1 mice. Intravenous administration in the case of mice and rats was carried out by means of a species-specific plasma/DMSO formulation, and in the case of dogs and monkeys by means of a water/PEG400/ethanol formulation. In all species, oral administration of the dissolved substance was performed via gavage, based on a water/PEG400/ethanol formulation.
An internal standard (which may also be a chemically unrelated substance) was added to the samples of the compounds of the invention, calibration samples and qualifiers, and there follows protein precipitation by means of acetonitrile in excess. […] The supernatant was analysed by LC-MS/MS using C18 reversed-phase columns and variable mobile phase mixtures. The substances were quantified via the peak heights or areas from extracted ion chromatograms of specific selected ion monitoring experiments.
The plasma concentration/time plots determined were used to calculate the pharmacokinetic parameters such as AUC,Cmax,t½ (terminal half-life), F (bioavailability), MRT (mean residence time) and CL (clearance), by means of a validated pharmacokinetic calculation program. […]

SMILES strings stand for the structures. Structures can show the parent of a compound that is named as a salt. Where two headings read alike, the source gives them in different places.

Regarding `CC(C)CN1CCN(c2ccc(-c3ccc(Cl)cc3N3CCCC(n4ncc(C(=O)O)c4C(F)(F)F)C3)cc2)CC1` (single isomer, unassigned) [Example 1, 1-[1-{4-Chloro-4′-[4-(2-methylpropyl)piperazin-1-yl][1,1′-biphenyl]-2-yl}piperidin-3-yl]-5-(trifluoromethyl)-1H-pyrazole-4-carboxylic acid], in data set [1], the EC50 (commonly the concentration needed to bring the measured effect to its halfway point) is 40 nM and the “MEC (minimum effective concentration)” value was 6.5 nM.
Regarding `CC(C)CN1CCN(c2ccc(-c3ccc(Cl)cc3N3CCCC(n4ncc(C(=O)O)c4C(F)(F)F)C3)cc2)CC1` (single isomer, unassigned) [Example 2, 1-[1-{4-chloro-4′-[4-(2-methylpropyl)piperazin-1-yl][1,1′-biphenyl]-2-yl}piperidin-3-yl]-5-(trifluoromethyl)-1H-pyrazole-4-carboxylic acid hydrochloride], in data set [1], the EC50 stood at 11 nM. Further, in data set [1] (hydrochloride), the “MEC (minimum effective concentration)” value is reported as 2.2 nM. The “lower plasma clearance (CLplasma) in comparison to example 174 in WO 2012/058132” value in data set [2] is “up to 10 times”.

These data come from patent US20240051935A1, “SUBSTITUTED PYRAZOLO PIPERIDINE CARBOXYLIC ACIDS” (BAYER AKTIENGESELLSCHAFT, priority 2020, published 2024).
